Measurements reported in US20180256673A1, “METHODS FOR TREATING FUNGAL INFECTIONS” (priority 2015, published 2018).
In brackets after ≈: the same amount, converted by molar mass. Where two headings read alike, the source gives them in different places. Starred links: 1 amine or outer side, 2 acyl side, 3 side chain; linkers in the order of their positions; H or OH if unused. Positions of bridges follow the written chain, without caps; N, C: chain ends. Non-standard residues stand in square brackets, D forms with d. Residues, ends and D or L forms follow the SMILES beside them. *: point of attachment. hTyr(3S-OH,4S-OH,3'-OSO3H) = N[C@H](C(=O)O)[C@H](O)[C@@H](O)c1ccc(O)c(OS(=O)(=O)O)c1; Orn(4R-OH,5R-OH) = O=C([C@H](C[C@@H](O)[C@@H](O)N[*:3])N[*:1])[*:2]; Pro(3S-OH,4S-Me) = C[C@H]1CN[C@H](C(=O)O)[C@H]1O; X1 = CCCCCOc1ccc(-c2cc(-c3ccc(C(=O)*)cc3)no2)cc1; Gln(3R-OH) = NC(=O)C[C@@H](O)[C@H](N)C(=O)O; Hyp = O=C(O)[C@@H]1C[C@@H](O)CN1

Key:
Candida tropicalis = test: Broth microdilution of invasive fungal isolates (CLSI M27-A3/M38-A2); format: cell-based
[1] = tested on: C. glabrata vaginal isolates; test: Susceptibility testing of VVC clinical isolates at pH 7 and 4 (CLSI M27-A3); format: cell-based, Candida glabrata; conditions: Nakaseomyces glabratus
Candida parapsilosis = test: Broth microdilution of invasive fungal isolates (CLSI M27-A3/M38-A2); format: cell-based
[2] = tested on: C. parapsilosis vaginal isolates; test: Susceptibility testing of VVC clinical isolates at pH 7 and 4 (CLSI M27-A3); format: cell-based, Candida parapsilosis
C. parapsilosis = test: Antifungal susceptibility testing (CLSI M27-S4); conditions: WT (19 isolates); 24 hr
Procedure: (§1) Antifungal susceptibility testing. Antifungal susceptibility testing was performed in triplicate for a collection of 95 Candida strains (20 C. albicans, 20 C. glabrata, 2 C. dubliniensis, 15 C. krusei, 19 C. parapsilosis, and 19 C. tropicalis) that included 30 isolates showing an echinocandin resistance (ER) phenotype (caspofungin-resistant) in accordance with the guidelines described in the Clinical and Laboratory Standards Institute (CLSI) document M27-S4. […] Stock solutions of the drugs were kept at −86° C.

Candida glabrata = test: microbe, parasite or virus in culture; format: cell-based
C. dubliniensis = test: Antifungal susceptibility testing (CLSI M27-S4), WT and echinocandin-resistant isolates; conditions: 24 hr
Procedure: as §1

[3] = biological target: 1,3-β-D-glucan synthase from C. albicans (Candida albicans, UniProt O13428, F641S); test: Glucan synthase (GS) inhibition assay; conditions: IC50, DPL18; Fks1 F641S
[4] = biological target: 1,3-β-D-glucan synthase from C. albicans (Candida albicans, UniProt O13428, S645P); test: Glucan synthase (GS) inhibition assay; conditions: IC50, DPL20; Fks1 S645P
[5] = biological target: 1,3-β-D-glucan synthase from C. albicans (Candida albicans, UniProt O13428); test: Glucan synthase (GS) inhibition assay
C. albicans = test: Mutant prevention concentration (MPC) determination; format: cell-based, Candida albicans; conditions: wild-type isolates; 24 hr, ~1×10^7 CFU/mL

Sequence of 1,3-β-D-glucan synthase from C. albicans (Candida albicans, UniProt O13428, F641S) (O13428 entry or part of it F641S): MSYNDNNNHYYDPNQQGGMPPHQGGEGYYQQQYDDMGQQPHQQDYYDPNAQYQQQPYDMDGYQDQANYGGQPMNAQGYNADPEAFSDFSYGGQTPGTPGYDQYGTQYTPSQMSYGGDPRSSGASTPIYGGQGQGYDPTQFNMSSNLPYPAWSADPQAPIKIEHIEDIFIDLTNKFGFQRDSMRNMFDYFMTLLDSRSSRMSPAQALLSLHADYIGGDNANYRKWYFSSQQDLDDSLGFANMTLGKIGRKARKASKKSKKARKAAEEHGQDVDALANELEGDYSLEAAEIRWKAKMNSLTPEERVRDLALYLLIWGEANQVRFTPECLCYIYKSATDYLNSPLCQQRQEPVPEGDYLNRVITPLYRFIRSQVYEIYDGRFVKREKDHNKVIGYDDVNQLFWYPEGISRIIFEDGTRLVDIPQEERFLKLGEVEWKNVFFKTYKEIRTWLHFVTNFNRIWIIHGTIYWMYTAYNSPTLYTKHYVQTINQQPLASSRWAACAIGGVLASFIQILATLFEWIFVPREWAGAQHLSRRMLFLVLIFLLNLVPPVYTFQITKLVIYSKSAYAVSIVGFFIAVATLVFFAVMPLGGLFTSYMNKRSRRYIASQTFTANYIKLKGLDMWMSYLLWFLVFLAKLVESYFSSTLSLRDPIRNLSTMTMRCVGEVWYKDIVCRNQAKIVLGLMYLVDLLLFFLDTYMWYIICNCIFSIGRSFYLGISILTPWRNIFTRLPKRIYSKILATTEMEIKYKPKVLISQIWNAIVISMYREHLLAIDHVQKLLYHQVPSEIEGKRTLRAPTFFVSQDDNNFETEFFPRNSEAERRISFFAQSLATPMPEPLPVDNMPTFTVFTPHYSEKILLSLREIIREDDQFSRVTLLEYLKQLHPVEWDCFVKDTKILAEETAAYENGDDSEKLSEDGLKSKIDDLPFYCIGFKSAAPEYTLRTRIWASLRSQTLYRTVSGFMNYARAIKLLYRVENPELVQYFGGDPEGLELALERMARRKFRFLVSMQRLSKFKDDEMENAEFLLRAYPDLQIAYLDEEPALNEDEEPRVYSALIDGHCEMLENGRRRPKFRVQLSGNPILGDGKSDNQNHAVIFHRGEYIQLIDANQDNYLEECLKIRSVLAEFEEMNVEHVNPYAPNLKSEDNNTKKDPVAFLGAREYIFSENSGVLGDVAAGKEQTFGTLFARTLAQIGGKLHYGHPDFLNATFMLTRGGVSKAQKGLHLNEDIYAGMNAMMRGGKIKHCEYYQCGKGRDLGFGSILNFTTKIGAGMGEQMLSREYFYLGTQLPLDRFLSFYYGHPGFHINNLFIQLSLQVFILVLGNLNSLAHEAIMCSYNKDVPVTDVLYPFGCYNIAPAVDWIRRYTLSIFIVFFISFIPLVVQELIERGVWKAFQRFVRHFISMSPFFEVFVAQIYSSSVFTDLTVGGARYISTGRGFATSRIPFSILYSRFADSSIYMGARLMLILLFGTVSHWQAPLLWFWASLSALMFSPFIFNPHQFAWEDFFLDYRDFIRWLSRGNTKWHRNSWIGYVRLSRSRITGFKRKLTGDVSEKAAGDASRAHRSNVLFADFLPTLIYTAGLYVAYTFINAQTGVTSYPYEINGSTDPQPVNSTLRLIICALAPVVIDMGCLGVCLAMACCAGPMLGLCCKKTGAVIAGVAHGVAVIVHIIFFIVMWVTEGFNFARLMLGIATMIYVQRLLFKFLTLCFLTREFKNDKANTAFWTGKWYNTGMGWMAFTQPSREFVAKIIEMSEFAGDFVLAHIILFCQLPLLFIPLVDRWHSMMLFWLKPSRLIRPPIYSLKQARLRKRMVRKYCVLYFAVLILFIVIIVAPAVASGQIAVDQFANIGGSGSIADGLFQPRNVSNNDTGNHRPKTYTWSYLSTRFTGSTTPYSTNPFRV
Sequence of 1,3-β-D-glucan synthase from C. albicans (Candida albicans, UniProt O13428, S645P) (O13428 entry or part of it S645P): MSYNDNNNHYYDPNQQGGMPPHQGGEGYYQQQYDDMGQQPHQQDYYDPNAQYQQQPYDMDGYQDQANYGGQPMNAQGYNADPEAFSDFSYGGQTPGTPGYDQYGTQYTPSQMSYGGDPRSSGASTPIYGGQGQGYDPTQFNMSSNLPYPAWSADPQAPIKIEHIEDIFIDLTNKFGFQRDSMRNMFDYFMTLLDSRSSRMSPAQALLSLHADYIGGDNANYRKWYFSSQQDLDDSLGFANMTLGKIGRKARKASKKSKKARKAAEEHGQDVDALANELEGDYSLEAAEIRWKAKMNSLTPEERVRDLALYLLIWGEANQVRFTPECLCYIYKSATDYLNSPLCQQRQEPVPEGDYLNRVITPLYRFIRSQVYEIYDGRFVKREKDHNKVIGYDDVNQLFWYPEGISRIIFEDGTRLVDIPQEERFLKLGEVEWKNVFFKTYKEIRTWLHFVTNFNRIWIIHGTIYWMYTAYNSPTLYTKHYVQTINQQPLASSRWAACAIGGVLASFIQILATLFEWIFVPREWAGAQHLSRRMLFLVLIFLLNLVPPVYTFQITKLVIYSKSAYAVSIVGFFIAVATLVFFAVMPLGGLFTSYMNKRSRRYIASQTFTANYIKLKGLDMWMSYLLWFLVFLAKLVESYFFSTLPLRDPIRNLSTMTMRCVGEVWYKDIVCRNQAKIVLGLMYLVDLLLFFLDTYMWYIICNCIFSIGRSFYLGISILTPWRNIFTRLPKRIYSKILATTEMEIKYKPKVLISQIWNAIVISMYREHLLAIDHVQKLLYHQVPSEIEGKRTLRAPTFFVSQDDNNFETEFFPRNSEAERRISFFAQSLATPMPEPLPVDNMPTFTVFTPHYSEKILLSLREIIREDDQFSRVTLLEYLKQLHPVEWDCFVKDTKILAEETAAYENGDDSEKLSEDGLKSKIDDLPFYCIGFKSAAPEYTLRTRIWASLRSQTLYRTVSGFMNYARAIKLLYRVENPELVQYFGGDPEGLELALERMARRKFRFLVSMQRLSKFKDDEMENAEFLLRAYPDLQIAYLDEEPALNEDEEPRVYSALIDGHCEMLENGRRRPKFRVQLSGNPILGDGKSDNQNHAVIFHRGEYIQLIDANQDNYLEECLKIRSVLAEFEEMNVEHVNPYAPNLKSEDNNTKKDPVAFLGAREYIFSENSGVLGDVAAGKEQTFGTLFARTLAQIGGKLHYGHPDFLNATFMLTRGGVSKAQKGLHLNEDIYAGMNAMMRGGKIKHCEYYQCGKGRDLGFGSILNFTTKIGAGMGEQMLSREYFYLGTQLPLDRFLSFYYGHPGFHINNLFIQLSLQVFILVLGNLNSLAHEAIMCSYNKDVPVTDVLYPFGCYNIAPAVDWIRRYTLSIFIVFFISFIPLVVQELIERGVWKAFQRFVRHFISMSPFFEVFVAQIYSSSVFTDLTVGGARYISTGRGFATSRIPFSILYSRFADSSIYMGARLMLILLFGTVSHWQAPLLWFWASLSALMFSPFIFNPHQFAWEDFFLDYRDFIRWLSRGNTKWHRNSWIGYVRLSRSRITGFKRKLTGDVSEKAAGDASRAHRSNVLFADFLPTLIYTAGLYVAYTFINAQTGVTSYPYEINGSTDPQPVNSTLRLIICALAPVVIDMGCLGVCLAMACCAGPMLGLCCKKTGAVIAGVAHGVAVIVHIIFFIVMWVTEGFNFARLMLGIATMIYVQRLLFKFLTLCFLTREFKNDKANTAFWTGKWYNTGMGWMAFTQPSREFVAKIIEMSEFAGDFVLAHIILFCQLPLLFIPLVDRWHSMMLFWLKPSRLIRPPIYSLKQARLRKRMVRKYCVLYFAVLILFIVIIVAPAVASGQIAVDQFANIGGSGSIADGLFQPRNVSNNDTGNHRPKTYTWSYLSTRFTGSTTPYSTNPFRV

`CCCCCOc1ccc(-c2cc(-c3ccc(C(=O)N[C@H]4C[C@@H](O)[C@@H](O)NC(=O)[C@@H]5[C@@H](O)[C@@H](C)CN5C(=O)[C@H]([C@H](O)CC(N)=O)NC(=O)[C@H]([C@H](O)[C@@H](O)c5ccc(O)c(OS(=O)(=O)O)c5)NC(=O)[C@@H]5C[C@@H](O)CN5C(=O)[C@H]([C@@H](C)O)NC4=O)cc3)no2)cc1` [MCF, micafungin] (X1-[Orn(4R-OH,5R-OH)]T[Hyp][hTyr(3S-OH,4S-OH,3'-OSO3H)][Gln(3R-OH)][Pro(3S-OH,4S-Me)]; lactam 1-C) was tested, and the “Cumulative % of isolates inhibited at MIC 0.015 μg/mL” value (Candida tropicalis; 51 isolates) was “(31.4) %”, the “Cumulative % of isolates inhibited at MIC 0.03 μg/mL” value (Candida tropicalis; 51 isolates) was “(84.3) %” and the “Cumulative % of isolates inhibited at MIC 0.06 μg/mL” value (Candida tropicalis; 51 isolates) was “(100.0) %”. The “Cumulative % of isolates inhibited at MIC ≤0.008 μg/mL” value (Candida tropicalis; 51 isolates) was “(2.0) %”, the “Number of isolates inhibited at MIC 0.015 μg/mL” value (Candida tropicalis; 51 isolates) was 15 and the “Number of isolates inhibited at MIC 0.03 μg/mL” value (Candida tropicalis; 51 isolates) was 27. The “Number of isolates inhibited at MIC 0.06 μg/mL” value (Candida tropicalis; 51 isolates) was 8, the “Number of isolates inhibited at MIC ≤0.008 μg/mL” value (Candida tropicalis; 51 isolates) was 1 and the MIC50 (Candida tropicalis; Candida tropicalis) was 0.03 mg/L (≈ 0.0236 µM). For the same molecule, the MIC90 (Candida tropicalis; Candida tropicalis) was 0.06 mg/L (≈ 0.0472 µM), the MIC90 ([1]; 24 h, pH 4) was 0.016 mg/L (≈ 0.0126 µM) and the MIC90 ([1]; 24 h, pH 7) was 0.008 mg/L (≈ 0.0063 µM). For the same molecule, the MIC90 ([1]; 48 h, pH 4) was 0.03 mg/L (≈ 0.0236 µM), the MIC90 ([1]; 48 h, pH 7) was 0.016 mg/L (≈ 0.0126 µM) and the “Cumulative % of isolates inhibited at MIC 0.5 μg/mL” value (Candida parapsilosis; 92 isolates) was “(10.9) %”. The “Cumulative % of isolates inhibited at MIC 1 μg/mL” value (Candida parapsilosis; 92 isolates) was “(72.8) %”, the “Cumulative % of isolates inhibited at MIC 2 μg/mL” value (Candida parapsilosis; 92 isolates) was “(100.0) %” and the “Number of isolates inhibited at MIC 0.5 μg/mL” value (Candida parapsilosis; 92 isolates) was 10. For the same molecule, the “Number of isolates inhibited at MIC 1 μg/mL” value (Candida parapsilosis; 92 isolates) was 57, the “Number of isolates inhibited at MIC 2 μg/mL” value (Candida parapsilosis; 92 isolates) was 25 and the MIC50 (Candida parapsilosis; Lodderomyces parapsilosis) was 1 mg/L (≈ 0.787 µM). It also gave an MIC90 (Candida parapsilosis; Lodderomyces parapsilosis) of 2 mg/L (≈ 1.57 µM), an MIC90 ([2]; 24 h, pH 4) of 0.5 mg/L (≈ 0.394 µM) and an MIC90 ([2]; 24 h, pH 7) of 1 mg/L (≈ 0.787 µM). For the same molecule, the MIC90 ([2]; 48 h, pH 4) was 1 mg/L (≈ 0.787 µM), the MIC90 ([2]; 48 h, pH 7) was 2 mg/L (≈ 1.57 µM) and the “MIC median (range)” value (C. parapsilosis) was 4 (1-4) mg/L. For the same molecule, the “Cumulative % of isolates inhibited at MIC 0.015 μg/mL” value (Candida glabrata) was “(74.0) %”, the “Cumulative % of isolates inhibited at MIC 0.03 μg/mL” value (Candida glabrata) was “(95.0) %” and the “Cumulative % of isolates inhibited at MIC 0.06 μg/mL” value (Candida glabrata) was “(95.0) %”. The “Cumulative % of isolates inhibited at MIC 0.12 μg/mL” value (Candida glabrata) was “(95.0) %”, the “Cumulative % of isolates inhibited at MIC 0.25 μg/mL” value (Candida glabrata) was “(95.0) %” and the “Cumulative % of isolates inhibited at MIC 0.5 μg/mL” value (Candida glabrata) was “(95.0) %”. For the same molecule, the “Cumulative % of isolates inhibited at MIC 1 μg/mL” value (Candida glabrata) was “(95.0) %”, the “Cumulative % of isolates inhibited at MIC 2 μg/mL” value (Candida glabrata) was “(98.0) %” and the “Cumulative % of isolates inhibited at MIC 4 μg/mL” value (Candida glabrata) was “(100.0) %”. For the same molecule, the “Cumulative % of isolates inhibited at MIC ≤0.008 μg/mL” value (Candida glabrata) was “(1.0) %”, the “MIC according to CLSI method” value (Candida glabrata) was 4 mg/L (≈ 3.15 µM) and the “Number of isolates inhibited at MIC 0.015 μg/mL” value (Candida glabrata) was 73. For the same molecule, the “Number of isolates inhibited at MIC 0.03 μg/mL” value (Candida glabrata) was 21, the “Number of isolates inhibited at MIC 0.06 μg/mL” value (Candida glabrata) was 0 and the “Number of isolates inhibited at MIC 0.12 μg/mL” value (Candida glabrata) was 0. The “Number of isolates inhibited at MIC 0.25 μg/mL” value (Candida glabrata) was 0, the “Number of isolates inhibited at MIC 0.5 μg/mL” value (Candida glabrata) was 0 and the “Number of isolates inhibited at MIC 1 μg/mL” value (Candida glabrata) was 0. The “Number of isolates inhibited at MIC 2 μg/mL” value (Candida glabrata) was 3, the “Number of isolates inhibited at MIC 4 μg/mL” value (Candida glabrata) was 2 and the “Number of isolates inhibited at MIC ≤0.008 μg/mL” value (Candida glabrata) was 1. The MIC50 (Candida glabrata; Nakaseomyces glabratus, read-out: MIC50) was 0.015 mg/L (≈ 0.0118 µM), the MIC90 (Candida glabrata; Nakaseomyces glabratus, read-out: MIC90) was 0.03 mg/L (≈ 0.0236 µM) and the MIC (Candida glabrata; Nakaseomyces glabratus, read-out: MIC according to CLSI method) was 2 mg/L (≈ 1.57 µM). For the same molecule, the MIC (Candida glabrata; Nakaseomyces glabratus, read-out: MIC results) was 2 to 4 mg/L (≈ 1.57 to 3.15 µM), the “MIC median (range)” value (C. dubliniensis; ER (1 isolate)) was 0.03 mg/L (≈ 0.0236 µM) and the “MIC median (range)” value (C. dubliniensis; WT (1 isolate)) was 0.03 mg/L (≈ 0.0236 µM). For the same molecule, the IC50 [3] was 1.4 µM, the IC50 [4] was 2.01 µM and the IC50 ([5]; IC50, DPL1002, WT) was 0.0139 µM. It also gave an IC50 ([5]; IC50, glucan synthase, ATCC 90028, WT) of 0.0142 µM, an IC50 ([5]; glucan synthase, DPL22, Fks1p S645P/S) of 0.193 µM and an MPC (C. albicans) of 16 µg/mL.
